Experimental data as given in patent US10160771B2, “Hepatitis C virus inhibitors and uses thereof in preparation of drugs” (priority 2014, dated 2018).

Columns and labels:
[1] = system: HCV genotype 1a (HCV-1a) replicon cells; assay: HCV genotype 1a replicon luciferase assay (EC50); format: cell-based, hepatitis C virus genotype 1a (H77 clone); settings: 3 days, luciferase (Bright-Glo)
Method in brief: (§1)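 Replicon cells, 8000/well, 3 d, 37 °C; 6-pt 5-fold dilution from 100, 10 or 1 nM, 0.5% DMSO, duplicates; Bright-Glo luminescence → EC50 (nonlinear fit). 1a = H77 K1691R/K2040R/S2204I; 1b = Con1 E1202G/T1280I/K1846T.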

[2] = system: HCV genotype 1b (HCV-1b) replicon cells; assay: HCV genotype 1b replicon luciferase assay (EC50); format: cell-based, hepatitis C virus genotype 1b (Con1 clone); settings: 3 days, luciferase (Bright-Glo)
Method in brief: as §1

HCV-1b replicon cells = assay: Cell Titer-fluor cell activity assay in HCV-1b replicon cells (CC50); format: cell-based; settings: 3 days
Method in brief: (§2)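 CC50 derived by nonlinear fitting of inhibition % from Cell Titer-fluor signal (405/515 nm, 30 min). Cells: genotype 1b Con1 replicon carrying E1202G, T1280I, K1846T, seeded 8000/well with compound for 3 days, 37 °C, 0.5% DMSO; 6 points, 5-fold dilution, top 100, 10 or 1 nM, duplicates.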

in vitro = format: cell-based; settings: HCV 1a replicon cells, 3 days, Cell Titer-fluor
Procedure: The EC50 and CC50 values of anti-HCV compounds were determined by HCV genotype 1a (HCV-1a) and 1B (HCV-1b) stable transfer replication (replicon) cells. The source of genotype 1a replicon is H77 clones containing K1691R, K2040R and S2204I adaptive mutations. The source of genotype 1b replicon is Con1 clones containing E1202G, T1280I and K1846T adaptive mutations.
HCV Replicon Cell Lines: HCV-1a and HCV-1b Cells
The compound powder was dissolved in 100% DMSO. Then the compound was diluted 5 times with 6 points, and added into the cell plate with Echo liquid handler. Ensure the final concentration of DMSO was 0.5%. Each compound was tested in double holes. Maximum initial concentration was 100, 10 or 1 nM, 5 times dilution, 6 points.
b) Cell Culture (HCV-1a or HCV-1b Replicon Cell):
1) absorbing the culture supernatant of the cell culture and washing the cells with 10 mL PBS.
2) adding preheated pancreatin to the washed cell culture flasks, rotating culture bottle to make the bottom of the culture bottle uniformly covered by pancreatin, then placed into 37° C., 5% CO2 incubator to digest.
3) suspending cells in each T150 culture flask with 10-15 mL culture medium, absorbing 0.1 mL liquid and diluting 2 times by trypan blue solution as counted.
4) diluting cells to 8×10^4/mL with the culture medium, adding the diluted cells into the compound-containing 96-well plate (Greiner, Cat.#655090) (100 μL/well, 8000 cells/well) with automatic liquid separator (Thermo Scientific). Then place into a 37° C., 5% CO2 incubator for 3 days. Cell control well: no compound, only containing 0.5% DMSO.
5) adding chemiluminescent substrate Cell Titer-fluor to the cell well, after incubation for 30 minutes, detecting the signal by chemiluminescence detection system Envison (Ex at 405 nm and read at 515 nm). The effect of the compounds on the activity of HCV replicon cells was analyzed according to the luminescence data, which was used to calculate the CC50 values.
The EC50 or CC50 values were obtained by nonlinear fitting analysis on inhibition percentage (inh %) data with GraphPad Prism software.

[3] = Cell Titer-fluor cell activity assay in HCV-1b replicon cells (CC50); format: cell-based
Method in brief: as §2

Row | Compound | EC50 [1] [nM] | EC50 [2] [nM] | CC50 (HCV-1b replicon cells) [nM] | EC50 ([1]; Hepatitis C virus, 72 h) [nM] | EC50 ([2]; Hepatitis C virus, 72 h) [nM] | CC50 (in vitro) [nM] | CC50 at 3 days [3] [nM]
1 | COC(=O)NC(C(=O)N1CCCC1c1[nH]c(-c2ccc(-c3ccc(-c4cnc([C@@H]5CCCN5C(=O)[C@@H](NC(=O)OC)C(C)C)[nH]4)cc3)cc2)c2c1CCC2)C1CCOC1 (single isomer, unassigned) [AG_025_B] | 10 to 100 | 0.001 to 0.1 | > 10 |  |  |  | 
2 | COC(=O)N[C@H](C(=O)N1CCC[C@H]1c1ncc(-c2ccc(-c3ccc(-c4cnc(C5C6CCC(C6)[C@H]5C(=O)N[C@H](c5cccnc5)C(C)C)[nH]4)cc3)cc2)[nH]1)[C@@H](C)OC (stereo partly shown) [AA_271_B] | 10 to 100 | 0.101 to 1 | > 1 |  |  |  | 
3 | COC(=O)N[C@H](C(=O)N1CCCC1c1ccc(-c2ccc(-c3ccc(-c4cnc([C@@H]5CCCN5C(=O)[C@@H](NC(=O)OC)[C@@H](C)OC)[nH]4)cc3)cc2)[nH]1)[C@@H](C)OC (single isomer, unassigned) [AG_072_B] | 1 to 10 | 0.101 to 1 | > 1 |  |  |  | 
4 | COC(=O)N[C@H](C(=O)N1CCC[C@H]1c1ncc(-c2ccc(-c3ccc(-c4cnc(C5C6CCC(C6)[C@@H]5C(=O)N[C@H](C)c5cccnc5)[nH]4)cc3)cc2)[nH]1)[C@@H](C)OC (single isomer, unassigned) [AA_253_C] | 10 to 100 | 1 to 10 | > 1 |  |  |  | 
5 | COC(=O)N[C@H](C(=O)N1CCC[C@H]1c1ncc(-c2ccc(-c3ccc(-c4cnc([C@H]5C6CCC(C6)[C@@H]5C(=O)NC(c5cccnc5)C(C)C)[nH]4)cc3)cc2)[nH]1)C(C)C (single isomer, unassigned) [AA_233_C] | 10 to 100 | 0.101 to 1 | > 1 |  |  |  | 
6 | COC(=O)NC(C(=O)N1CCCC1c1[nH]c(-c2ccc(-c3ccc(-c4cnc([C@@H]5CCCN5C(=O)[C@@H](NC(=O)OC)C(C)C)[nH]4)cc3)cc2)c2c1CCC2)C1CCOC1 (single isomer, unassigned) [AG_025_C] | 10 to 100 | 0.101 to 1 | > 10 |  |  |  | 
7 | COC(=O)N[C@H](C(=O)N1CCC[C@H]1c1ncc(-c2ccc(-c3ccc(-c4[nH]c([C@@H]5CCCN5C(=O)[C@@H](NC(=O)OC)[C@@H](C)OC)c5c4COC5)cc3)cc2)[nH]1)[C@@H](C)OC [AG_080_A] | 0.001 to 0.1 | 0.001 to 0.1 | > 5 |  |  |  | 
8 | COC(=O)NC(C(=O)N1CCCC1c1[nH]c(-c2ccc(-c3ccc(-c4cnc([C@@H]5CCCN5C(=O)C(NC(=O)OC)C5CCOCC5)[nH]4)cc3)cc2)c2c1CCC2)C1CCOCC1 (stereo partly shown) [AG_042] |  |  |  | 1 to 10 | 0.101 to 1 | > 100 | > 100
9 | COC(=O)NC(C(=O)N1CCC[C@H]1c1ncc(-c2ccc(-c3ccc(-c4[nH]c(C5CCCN5C(=O)[C@@H](NC(=O)OC)C(C)C)c5c4CCC5)cc3)cc2)[nH]1)C1CCOCC1 (stereo partly shown) [AG_035] |  |  |  | 10 to 100 | 0.001 to 0.1 | > 100 | > 10
10 | COC(=O)N[C@H](C(=O)N1CCC[C@H]1c1ncc(-c2ccc(-c3ccc(-c4cnc(C5C6CCC(C6)[C@@H]5C(=O)N[C@H](c5cccnc5)C(C)C)[nH]4)cc3)cc2)[nH]1)[C@@H](C)OC (stereo partly shown) [AA_271_A] | 0.101 to 1 | 0.001 to 0.1 | > 1 |  |  |  | 
11 | COC(=O)N[C@H](C(=O)N1CCCC1c1ccc(-c2ccc(-c3ccc(-c4cnc(C5CCCN5C(=O)[C@@H](NC(=O)OCCF)C(C)C)[nH]4)cc3)cc2)[nH]1)C(C)C (stereo partly shown) [AG_062] | 10 to 100 | 0.101 to 1 | > 10 |  |  |  | 
12 | COC(=O)N[C@H](C(=O)N1CCC[C@H]1c1ncc(-c2ccc(-c3ccc(-c4cnc(C5C6CCC(C6)[C@@H]5C(=O)NC(C)c5cnccn5)[nH]4)cc3)cc2)[nH]1)[C@@H](C)OC (single isomer, unassigned) [AA_281_C] | 1 to 10 | 0.101 to 1 | > 1 |  |  |  | 
13 | COC(=O)N[C@H](C(=O)N1CCCC1c1ccc(-c2ccc(-c3ccc(-c4cnc([C@@H]5CCCN5C(=O)[C@@H](NC(=O)OC)C5CCOC(C)C5)[nH]4)cc3)cc2)[nH]1)C(C)C (stereo partly shown) [AG_053] |  |  |  | 1 to 10 | 0.101 to 1 | > 100 | > 100
14 | COC(=O)NC(C(=O)N1CCC[C@H]1c1ncc(-c2ccc(-c3ccc(-c4[nH]c(C5CCCN5C(=O)[C@@H](NC(=O)OC)C(C)C)c5c4CCC5)cc3)cc2)[nH]1)C1CCOC(C)C1 (stereo partly shown) [AG_050] |  |  |  | 1 to 10 | 0.001 to 0.1 | > 100 | > 100
15 | COC(=O)N[C@H](C(=O)N1CC2(C[C@H]1c1ncc(-c3ccc(-c4ccc(-c5[nH]c([C@@H]6CCCN6C(=O)[C@@H](NC(=O)OC)[C@@H](C)OC)c6c5CCC6)cc4)cc3)[nH]1)OCCO2)[C@@H](C)OC [AG_089] | 1 to 10 | 0.001 to 0.1 | > 1 |  |  |  | 
16 | COC(=O)NC(C(=O)N1CCC[C@H]1c1ncc(-c2ccc(-c3ccc(-c4[nH]c(C5CCCN5C(=O)[C@@H](NC(=O)OC)C(C)C)c5c4CCC5)cc3)cc2)[nH]1)C1CCOC1 (stereo partly shown) [AG_049] |  |  |  | 10 to 100 | 0.001 to 0.1 | > 100 | > 100
17 | COC(=O)N[C@H](C(=O)N1CCCC1c1ncc(-c2ccc3cc(-c4ccc(-c5[nH]c(C6CCCN6C(=O)[C@@H](NC(=O)OC)C(C)C)c6c5CCC6)cc4)ccc3c2)[nH]1)C(C)C (stereo partly shown) [AG_048] |  |  |  | 10 to 100 | 0.101 to 1 | > 100 | > 100
18 | COC(=O)N[C@H](C(=O)N1CCC[C@H]1c1ncc(-c2ccc(-c3ccc(-c4ccc(C5CCCN5C(=O)[C@@H](NC(=O)OC)C5CCOCC5)[nH]4)cc3)cc2)[nH]1)C(C)C (stereo partly shown) [AG_037] |  |  |  | 0.101 to 1 | 0.001 to 0.1 | > 100 | > 10
19 | COC(=O)N[C@H](C(=O)N1CCC[C@H]1c1[nH]c(-c2ccc(-c3ccc(-c4cnc([C@@H]5CCCCN5C(=O)[C@@H](NC(=O)OC)[C@@H](C)OC)[nH]4)cc3)cc2)c2c1COC2)C(C)OC (stereo partly shown) [AG_124] |  |  |  | 0.101 to 1 | 0.001 to 0.1 | > 100 | > 1
20 | COC(=O)N[C@H](C(=O)N1CCC[C@H]1c1ncc(-c2ccc(-c3ccc(-c4cnc([C@H]5C6CCC(C6)[C@@H]5C(=O)NC(C)c5cccnc5)[nH]4)cc3)cc2)[nH]1)C(C)C (single isomer, unassigned) [AA_204_C] | 1 to 10 | 0.001 to 0.1 | > 1 |  |  |  | 
21 | COC(=O)NC(C(=O)N1CCC[C@H]1c1ncc(-c2ccc3cc(-c4ccc(-c5[nH]c(C6CCCN6C(=O)[C@@H](NC(=O)OC)C(C)C)c6c5CCC6)cc4)ccc3c2)[nH]1)C1CCOCC1 (stereo partly shown) [AG_051] |  |  |  | 1 to 10 | 0.101 to 1 | > 100 | > 100
22 | COC(=O)NC(C(=O)N1CCCC1c1[nH]c(-c2ccc(-c3ccc(-c4cnc([C@@H]5CCCN5C(=O)[C@@H](NC(=O)OC)C(C)C)[nH]4)cc3)cc2)c2c1CCCC2)C1CCOCC1 (stereo partly shown) [AG_040] |  |  |  | 10 to 100 | 0.101 to 1 | > 100 | > 10
